Measurements: patent US9247759B2, “Identification of human T2R receptors that respond to bitter compounds that elicit the bitter taste in compositions, and the use thereof in assays to identify compounds that inhibit (block) bitter taste in compositions and use thereof” (SENOMYX, INC., priority 2007, dated 2016)

What was measured:
hT2R16 = hT2R16 (Homo sapiens (Human), UniProt Q9NYV7); experiment: hT2R panel inhibition, transient HEK293 G16g44, agonist Salicin 1 mM; assay type: cell-based; details: HEK293, compound at 25 μM; receptor activated to EC80 with the corresponding agonist; read-out: screening result against bitter receptor 16
Summary of the method: (§1)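 Panel: 22 human T2Rs, individually transient in stable G16g44 cells. Stim: EC80 agonist. Output: % reduction of activity by test cpd.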

hT2R64 = hT2R64 (Homo sapiens (Human), UniProt P59538); experiment: hT2R panel inhibition, transient HEK293 G16g44, agonist Aristolochic Acid 1 μM; assay type: cell-based; details: HEK293, compound at 25 μM; receptor activated to EC80 with the corresponding agonist; read-out: screening result against bitter receptor 64
Summary of the method: as §1

hT2R5 = hT2R5 (Homo sapiens (Human), UniProt Q9NYW4); experiment: hT2R panel inhibition, transient HEK293 G16g44, agonist Picoline 10 mM; assay type: cell-based; details: HEK293, compound at 25 μM; receptor activated to EC80 with the corresponding agonist; read-out: screening result against bitter receptor 5
Summary of the method: as §1

hT2R63 = experiment: hT2R panel inhibition, transient HEK293 G16g44, agonist Caffeine 1 mM or Andrographolide 100 μM; assay type: cell-based, human; details: compound at 25 μM; receptor activated to EC80 with the corresponding agonist
Summary of the method: as §1

hT2R7 = hT2R7 (Homo sapiens (Human), UniProt Q9NYW3); experiment: hT2R panel inhibition, transient HEK293 G16g44, agonist Chloroquine pH6.5 10 mM; assay type: cell-based; details: HEK293, compound at 25 μM; receptor activated to EC80 with the corresponding agonist; read-out: screening result against bitter receptor 7
Summary of the method: as §1

hT2R3 = hT2R3 (Homo sapiens (Human), UniProt Q9NYW6); experiment: hT2R panel inhibition, transient HEK293 G16g44, agonist Chloroquine pH6.5 50 μM; assay type: cell-based; details: HEK293, compound at 25 μM; receptor activated to EC80 with the corresponding agonist; read-out: screening result against bitter receptor 3
Summary of the method: as §1

hT2R4 = hT2R4 (Homo sapiens (Human), UniProt Q9NYW5); experiment: hT2R panel inhibition, transient HEK293 G16g44, agonist Chloroquine pH6.5 5 mM; assay type: cell-based; details: HEK293, compound at 25 μM; receptor activated to EC80 with the corresponding agonist; class symbols; read-out: screening result against bitter receptor 4
Experimental: (§2) Specifically, in order to evaluate the inhibitory selectivity of the Compound C compound, this compound was tested against 22 human T2Rs which were deorphaned by Senomyx. These receptors and the bitter ligands that activate these human T2Rs are reported in earlier patent applications which are incorporated by reference herein. These 22 human T2Rs are hT2R1, 3, 4, 5, 7, 8, 9, 10, 13, 14, 16, 44, 51, 54, 55, 61, 63, 64, 65, 67, 71 and 75. The amino acid and nucleic acid sequences of all of these T2Rs may be found in these earlier patent applications. These human T2Rs were each individually transiently transfected into HEK293 cells that stably express the promiscuous G protein G16g44 and functional assays were effected using these receptors as disclosed in these same patent applications. […] The ligands were used at EC80 concentration levels. The list of bitter ligands utilized and the tested ligand concentrations are contained in Table 5 of this example.
(§3) Relating to the foregoing, FIG. 5 contains experimental results wherein Compound C was tested with different agonist compounds. The inhibition activity is represented by the reduction of receptor activity in the presence of Compound C. […] These 13 hT2Rs are hT2R3, 7, 10, 14, 16, 44, 51, 55, 61, 63, 64, 65, and 71.

hT2R55 = experiment: hT2R panel inhibition, transient HEK293 G16g44, agonist Cinchonine 150 μM; assay type: cell-based, human; details: compound at 25 μM; receptor activated to EC80 with the corresponding agonist
Summary of the method: as §1

hT2R14 [1] = target: T1, hT2R14 (Homo sapiens (Human), UniProt Q9NYV8); experiment: hT2R panel inhibition, transient HEK293 G16g44, agonist Aristolochic Acid 2 μM; assay type: cell-based; details: HEK293, compound at 25 μM; receptor activated to EC80 with the corresponding agonist; read-out: screening result against bitter receptor 14
Summary of the method: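 Agonist challenge was at EC80, with 0.5 mM andrographolide on hT2R8 and 2 μM aristolochic acid on hT2R14. Inhibition was measured in functional assays in HEK293 cells that stably carry the promiscuous G protein G16g44 and were transiently transfected with the individual receptor.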

hT2R65 = experiment: hT2R panel inhibition, transient HEK293 G16g44, agonist Oleuropein 1 mM; assay type: cell-based, human; details: compound at 25 μM; receptor activated to EC80 with the corresponding agonist
Summary of the method: as §1

hT2R14 [2] = target: T1, hT2R14; experiment: hT2R14 antagonist high-throughput FLIPR assay, stable cell line with G16g44, agonist aristolochic acid; assay type: cell-based; details: read-out: IC50 on hT2R14 bitter receptor
Summary of the method: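 Compounds were co-applied with 3 μM aristolochic acid, a dose set to reach 70-80% of maximal hT2R14 activation. Read-out was FLIPR fluorescence in a stable HEK293 line co-expressing hT2R14 and G16g44.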

hT2R71 = hT2R71 (Homo sapiens (Human), UniProt P59536); experiment: hT2R panel inhibition, transient HEK293 G16g44, agonist Picric Acid 10 μM; assay type: cell-based; details: HEK293, compound at 25 μM; receptor activated to EC80 with the corresponding agonist; read-out: screening result against bitter receptor 71
Summary of the method: as §1

hT2R51 = hT2R51 (Homo sapiens (Human), UniProt P59533); experiment: hT2R panel inhibition, transient HEK293 G16g44, agonist Prop 2.5 μM; assay type: cell-based; details: HEK293, compound at 25 μM; receptor activated to EC80 with the corresponding agonist; read-out: screening result against bitter receptor 51
Experimental: as §2, §3

hT2R61 = hT2R61 (Homo sapiens (Human), UniProt P59537); experiment: hT2R panel inhibition, transient HEK293 G16g44, agonist Aristolochic Acid 25 nM; assay type: cell-based; details: HEK293, compound at 25 μM; receptor activated to EC80 with the corresponding agonist; read-out: screening result against bitter receptor 61
Summary of the method: as §1

hT2R10 = hT2R10 (Homo sapiens (Human), UniProt Q9NYW0); experiment: hT2R panel inhibition, transient HEK293 G16g44, agonist Strychnine 50 μM; assay type: cell-based; details: HEK293, read-out: screening result against bitter receptor 10, compound at 25 μM; receptor activated to EC80 with the corresponding agonist
hT2R44 = experiment: hT2R panel inhibition, transient HEK293 G16g44, agonist Denatonium 0.5 μM; assay type: cell-based, human; details: compound at 25 μM; receptor activated to EC80 with the corresponding agonist
Summary of the method: as §1

hT2R54 = experiment: hT2R panel inhibition, transient HEK293 G16g44, agonist Ranitidine 5 mM; assay type: cell-based, human; details: compound at 25 μM; receptor activated to EC80 with the corresponding agonist
Summary of the method: as §1

hT2R75 = hT2R75 (Homo sapiens (Human), UniProt P59540); experiment: hT2R panel inhibition, transient HEK293 G16g44, agonist Strychnine 1 μM; assay type: cell-based; details: HEK293, read-out: screening result against bitter receptor 75, compound at 25 μM; receptor activated to EC80 with the corresponding agonist
Experimental: as §2, §3

hT2R67 = experiment: hT2R panel inhibition, transient HEK293 G16g44, agonist Andrographolide 5 μM; assay type: cell-based, human; details: compound at 25 μM; receptor activated to EC80 with the corresponding agonist
Summary of the method: as §1

T1 sequence (Q9NYV8 whole entry): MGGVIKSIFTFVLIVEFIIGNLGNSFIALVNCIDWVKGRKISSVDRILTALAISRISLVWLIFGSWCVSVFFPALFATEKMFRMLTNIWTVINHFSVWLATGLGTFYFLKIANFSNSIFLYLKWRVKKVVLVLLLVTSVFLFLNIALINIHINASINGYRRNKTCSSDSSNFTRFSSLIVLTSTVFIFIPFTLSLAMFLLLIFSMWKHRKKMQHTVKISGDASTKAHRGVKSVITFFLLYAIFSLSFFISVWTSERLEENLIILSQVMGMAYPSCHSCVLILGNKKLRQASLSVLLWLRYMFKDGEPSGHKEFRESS
Chain of hT2R7 (Q9NYW3 whole entry): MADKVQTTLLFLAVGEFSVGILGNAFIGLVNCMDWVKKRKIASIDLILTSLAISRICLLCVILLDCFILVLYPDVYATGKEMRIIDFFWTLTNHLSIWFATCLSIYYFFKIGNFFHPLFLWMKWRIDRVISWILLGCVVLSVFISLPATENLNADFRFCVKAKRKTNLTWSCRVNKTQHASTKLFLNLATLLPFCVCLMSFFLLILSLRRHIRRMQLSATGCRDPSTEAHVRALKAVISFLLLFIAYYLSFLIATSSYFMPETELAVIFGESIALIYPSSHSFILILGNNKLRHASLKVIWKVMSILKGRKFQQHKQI
Chain of hT2R61 (P59537 whole entry): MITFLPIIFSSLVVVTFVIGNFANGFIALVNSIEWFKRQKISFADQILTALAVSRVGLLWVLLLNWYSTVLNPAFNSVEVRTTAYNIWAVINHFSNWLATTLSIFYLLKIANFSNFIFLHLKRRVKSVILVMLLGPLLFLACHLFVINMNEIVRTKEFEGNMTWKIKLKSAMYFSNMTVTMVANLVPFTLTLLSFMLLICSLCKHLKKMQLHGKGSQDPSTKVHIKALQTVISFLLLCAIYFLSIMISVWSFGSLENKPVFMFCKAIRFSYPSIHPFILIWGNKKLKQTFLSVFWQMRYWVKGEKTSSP
Chain of hT2R71 (P59536 whole entry): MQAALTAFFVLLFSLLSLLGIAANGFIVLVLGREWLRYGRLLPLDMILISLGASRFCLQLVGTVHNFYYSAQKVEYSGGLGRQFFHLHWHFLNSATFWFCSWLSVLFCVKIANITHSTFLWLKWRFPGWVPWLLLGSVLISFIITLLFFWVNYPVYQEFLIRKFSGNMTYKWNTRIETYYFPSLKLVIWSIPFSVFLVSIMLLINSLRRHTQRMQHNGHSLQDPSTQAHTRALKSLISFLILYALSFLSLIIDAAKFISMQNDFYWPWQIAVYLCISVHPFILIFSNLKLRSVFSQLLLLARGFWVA
Chain of hT2R16 (Q9NYV7 whole entry): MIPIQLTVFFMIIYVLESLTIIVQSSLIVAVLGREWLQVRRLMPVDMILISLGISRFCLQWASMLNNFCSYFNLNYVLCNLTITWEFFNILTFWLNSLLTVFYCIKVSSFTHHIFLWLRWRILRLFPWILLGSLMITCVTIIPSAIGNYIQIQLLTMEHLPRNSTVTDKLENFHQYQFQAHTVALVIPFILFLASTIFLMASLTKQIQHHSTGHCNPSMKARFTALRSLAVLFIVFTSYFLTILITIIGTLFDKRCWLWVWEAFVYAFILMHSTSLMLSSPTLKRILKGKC
Chain of hT2R5 (Q9NYW4 whole entry): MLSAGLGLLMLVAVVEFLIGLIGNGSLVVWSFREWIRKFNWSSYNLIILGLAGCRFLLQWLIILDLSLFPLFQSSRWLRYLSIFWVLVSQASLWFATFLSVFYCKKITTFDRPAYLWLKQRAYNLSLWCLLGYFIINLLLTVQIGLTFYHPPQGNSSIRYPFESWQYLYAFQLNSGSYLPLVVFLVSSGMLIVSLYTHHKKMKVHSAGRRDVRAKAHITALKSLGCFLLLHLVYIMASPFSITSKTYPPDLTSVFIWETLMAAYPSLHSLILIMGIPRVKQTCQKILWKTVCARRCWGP
Chain of hT2R3 (Q9NYW6 whole entry): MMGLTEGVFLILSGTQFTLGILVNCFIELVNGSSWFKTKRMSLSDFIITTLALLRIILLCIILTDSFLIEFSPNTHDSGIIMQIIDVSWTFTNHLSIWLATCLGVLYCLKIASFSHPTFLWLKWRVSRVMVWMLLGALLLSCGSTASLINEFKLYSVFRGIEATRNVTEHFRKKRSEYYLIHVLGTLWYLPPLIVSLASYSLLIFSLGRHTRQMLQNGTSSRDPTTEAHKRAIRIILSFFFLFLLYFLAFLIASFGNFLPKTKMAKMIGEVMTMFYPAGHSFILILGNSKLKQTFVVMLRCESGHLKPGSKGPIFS
Chain of hT2R4 (Q9NYW5 whole entry): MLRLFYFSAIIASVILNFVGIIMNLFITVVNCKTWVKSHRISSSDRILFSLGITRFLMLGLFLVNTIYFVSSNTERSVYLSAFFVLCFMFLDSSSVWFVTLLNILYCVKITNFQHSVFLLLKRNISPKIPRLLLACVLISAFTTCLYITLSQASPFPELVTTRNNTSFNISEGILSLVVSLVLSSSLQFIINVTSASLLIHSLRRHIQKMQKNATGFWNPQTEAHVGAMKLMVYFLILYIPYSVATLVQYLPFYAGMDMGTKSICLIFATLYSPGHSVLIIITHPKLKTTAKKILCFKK
Chain of hT2R64 (P59538 whole entry): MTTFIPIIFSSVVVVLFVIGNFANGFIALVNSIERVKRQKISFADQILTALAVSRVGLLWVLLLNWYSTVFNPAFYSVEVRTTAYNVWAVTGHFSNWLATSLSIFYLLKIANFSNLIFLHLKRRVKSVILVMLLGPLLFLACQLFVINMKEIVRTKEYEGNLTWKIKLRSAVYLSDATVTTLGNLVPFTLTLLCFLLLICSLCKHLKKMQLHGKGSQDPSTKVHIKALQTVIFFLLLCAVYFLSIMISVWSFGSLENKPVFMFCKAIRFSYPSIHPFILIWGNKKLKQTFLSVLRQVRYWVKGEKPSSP
Chain of hT2R10 (Q9NYW0 whole entry): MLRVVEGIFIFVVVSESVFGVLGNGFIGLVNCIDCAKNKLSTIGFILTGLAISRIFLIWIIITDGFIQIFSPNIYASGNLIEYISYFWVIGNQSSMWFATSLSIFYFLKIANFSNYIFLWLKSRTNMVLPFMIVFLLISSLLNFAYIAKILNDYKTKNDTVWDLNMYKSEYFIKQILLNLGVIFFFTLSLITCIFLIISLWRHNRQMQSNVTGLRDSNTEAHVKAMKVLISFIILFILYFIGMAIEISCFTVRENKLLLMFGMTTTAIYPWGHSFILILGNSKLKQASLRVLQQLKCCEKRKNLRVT
Chain of hT2R51 (P59533 whole entry): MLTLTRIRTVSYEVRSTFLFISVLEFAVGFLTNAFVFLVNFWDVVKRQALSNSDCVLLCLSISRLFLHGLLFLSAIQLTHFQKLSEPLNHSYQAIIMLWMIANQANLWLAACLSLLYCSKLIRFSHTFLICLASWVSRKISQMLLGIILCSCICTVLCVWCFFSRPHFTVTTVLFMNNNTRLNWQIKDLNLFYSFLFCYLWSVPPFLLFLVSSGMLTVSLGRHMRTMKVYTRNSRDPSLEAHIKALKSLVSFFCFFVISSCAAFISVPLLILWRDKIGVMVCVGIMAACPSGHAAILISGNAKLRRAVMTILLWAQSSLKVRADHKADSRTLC
Chain of hT2R75 (P59540 whole entry): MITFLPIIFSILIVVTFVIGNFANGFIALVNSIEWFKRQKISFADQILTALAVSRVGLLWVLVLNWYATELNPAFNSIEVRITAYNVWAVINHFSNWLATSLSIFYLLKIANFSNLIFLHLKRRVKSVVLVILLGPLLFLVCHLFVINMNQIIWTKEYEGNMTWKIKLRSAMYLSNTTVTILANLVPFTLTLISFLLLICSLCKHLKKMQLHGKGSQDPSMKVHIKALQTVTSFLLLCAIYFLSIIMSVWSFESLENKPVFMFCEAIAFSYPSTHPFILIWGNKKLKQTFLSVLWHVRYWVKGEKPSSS

Row | Compound | inhibition at 25 µM (hT2R16) [%] | inhibition at 25 µM (hT2R64) [%] | inhibition at 25 µM (hT2R5) [%] | screening result against bitter receptor 63 (hT2R63) | inhibition at 25 µM (hT2R7) [%] | inhibition at 25 µM (hT2R3) [%] | inhibition at 25 µM (hT2R4) [%] | screening result against bitter receptor 55 (hT2R55) | inhibition at 25 µM (hT2R14 [1]) [%] | screening result against bitter receptor 65 (hT2R65) | IC50 (hT2R14 [2]) [nM] | inhibition at 25 µM (hT2R71) [%] | inhibition at 25 µM (hT2R51) [%] | inhibition at 25 µM (hT2R61) [%] | inhibition at 25 µM (hT2R10) [%] | screening result against bitter receptor 44 (hT2R44) | screening result against bitter receptor 54 (hT2R54) | inhibition at 25 µM (hT2R75) [%] | screening result against bitter receptor 67 (hT2R67)
1 | Cc1ccc(S(=O)(=O)N(Cc2ccc(F)cc2)Cc2ccc(C(=O)O)cc2)cc1 [Example 5-37, 4-((N-(4-fluorobenzyl)-4-methylphenylsulfonamido)methyl)benzoic acid] | 20 to 40 | 60 to 80 | 20 to 40 | + (20% to 40% inhibition = +) | 20 to 40 | 20 to 40 | 60 to 80 | ++++ (80% or greater inhibition = ++++) | > 80 | ++ (40% to 60% inhibition = ++) | 54 | – | – | – | – | – | – | – | –
2 | COc1ccc(CN(Cc2ccc(OC)c(OC)c2)S(=O)(=O)c2ccc(C(=O)O)cc2)cc1 [Example 5-40, 4-(N-(3,4-dimethoxybenzyl)-N-(4-methoxybenzyl)sulfamoyl)benzoic acid] | 20 to 40 | 60 to 80 | 20 to 40 | ++++ (80% or greater inhibition = ++++) | – | 20 to 40 | 20 to 40 | ++++ (80% or greater inhibition = ++++) | > 80 | – | 1470 | 40 to 60 | 20 to 40 | > 80 | 40 to 60 | +++ (60% to 80% inhibition = +++) | + (20% to 40% inhibition = +) | – | –
3 | COc1ccc(CN(Cc2ccccc2Cl)S(=O)(=O)c2ccc(C(=O)O)cc2)cc1 [Example 5-68, 4-(N-(2-chlorobenzyl)-N-(4-methoxybenzyl)sulfamoyl)benzoic acid] | 20 to 40 | 60 to 80 | 40 to 60 | ++++ (80% or greater inhibition = ++++) | 20 to 40 | 20 to 40 | – | ++++ (80% or greater inhibition = ++++) | > 80 | + (20% to 40% inhibition = +) | – | 60 to 80 | 20 to 40 | 60 to 80 | 20 to 40 | ++ (40% to 60% inhibition = ++) | + (20% to 40% inhibition = +) | 20 to 40 | + (20% to 40% inhibition = +)
4 | CC(=O)Nc1ccc(S(=O)(=O)N(Cc2ccccc2)CC2CCC(C(=O)O)CC2)cc1 (stereo not drawn) [Example 5-21, 4-((4-acetamido-N-benzylphenylsulfonamido)methyl)-cyclohexanecarboxylic acid] | 20 to 40 | 20 to 40 | – | +++ (60% to 80% inhibition = +++) | – | 20 to 40 | 20 to 40 | + (20% to 40% inhibition = +) | > 80 | – | 1620 | 20 to 40 | – | 60 to 80 | – | ++ (40% to 60% inhibition = ++) | – | – | –
5 | COc1ccc(CN(Cc2ccc(NC(C)=O)cc2)S(=O)(=O)c2ccc(C(=O)O)cc2)cc1 [Example 5-26, 4-(N-(4-acetamidobenzyl)-N-(4-methoxybenzyl)sulfamoyl)benzoic acid] | – | 60 to 80 | – | +++ (60% to 80% inhibition = +++) | 20 to 40 | – | 40 to 60 | – | – | – | – | 20 to 40 | – | 20 to 40 | – | + (20% to 40% inhibition = +) | – | – | –
6 | O=C(O)C1CCC(CN(Cc2ccc(F)cc2)S(=O)(=O)c2ccccn2)CC1 (stereo not drawn) [Example 5-53, 4-((N-(4-fluorobenzyl)pyridine-2-sulfonamido)methyl)cyclohexanecarboxylic acid] | – | 40 to 60 | – | ++ (40% to 60% inhibition = ++) | 20 to 40 | – | 20 to 40 | – | 40 to 60 | – | – | 20 to 40 | – | – | – | – | – | – | –
7 | COc1cccc(CN(Cc2ccc(C(=O)O)cc2)S(=O)(=O)c2ccc(O)cc2)c1 [Example 5-43, 4-((4-hydroxy-N-(3-methoxybenzyl)phenylsulfonamido)methyl)-benzoic acid] | 20 to 40 | 60 to 80 | – | ++++ (80% or greater inhibition = ++++) | – | 20 to 40 | 20 to 40 | + (20% to 40% inhibition = +) | > 80 | – | 188 | 40 to 60 | – | > 80 | – | + (20% to 40% inhibition = +) | – | – | –
8 | COc1ccc(CN2C(=O)N(c3ccc(C(=O)O)cc3)C(=O)C2Cc2ccccc2)cc1 (stereo not drawn) [Example 5-98, 4-(4-benzyl-3-(4-methoxybenzyl)-2,5-dioxoimidazolidin-1-yl)benzoic acid] | – | 60 to 80 | – | – | – | 20 to 40 | 40 to 60 | ++++ (80% or greater inhibition = ++++) | – | – | – | – | – | > 80 | – | +++ (60% to 80% inhibition = +++) | – | – | –
9 | O=C(O)C1CCC(CN(Cc2ccc(F)cc2)S(=O)(=O)Cc2ccccc2)CC1 (stereo not drawn) [Example 5-24, 4-((N-(4-fluorobenzyl)-1-phenylmethylsulfonamido)methyl)-cyclohexanecarboxylic acid] | – | 60 to 80 | – | + (20% to 40% inhibition = +) | 20 to 40 | – | 20 to 40 | ++ (40% to 60% inhibition = ++) | – | – | 9570 | 20 to 40 | – | > 80 | – | + (20% to 40% inhibition = +) | – | – | –
